SMILES strings stand for the structures. A value given as a limit tells only on which side of the number the result lay.

Among the data in patent publication US20250042857A1, “SOS1 Inhibitor With Pyrido-Fused Six-Membered Ring Structure” (HAIHE BIOPHARMA CO., LTD., priority 2021, published 2025) are IC50 values, retold here.

For one experiment, the target named is KRAS-G12C/SOS1 (Homo sapiens (Human), UniProt Q07889). The experiment in a line: Detection of inhibitory effects of compounds on KRAS-G12C/SOS1 (KRASG12C/SOS binding kit, HTRF). Conditions: Em665/620, read-out: IC50, inhibitory activity on interaction of KRAS-G12C/SOS1. In a few lines: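 HTRF binding of Tag2-KRAS-G12C to Tag1-SOS1 with compounds (10-point 3-fold dilution from 5,000 nM) for 15 min at room temperature, then anti-Tag1-Tb and anti-Tag2-XL665 for 120 min at 4° C. Em665/620 read; inhibition normalised to control wells, IC50 from variable-slope log(inhibitor) fit.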
KRAS-G12C/SOS1, sequence (Q07889 whole entry, stated change not applied): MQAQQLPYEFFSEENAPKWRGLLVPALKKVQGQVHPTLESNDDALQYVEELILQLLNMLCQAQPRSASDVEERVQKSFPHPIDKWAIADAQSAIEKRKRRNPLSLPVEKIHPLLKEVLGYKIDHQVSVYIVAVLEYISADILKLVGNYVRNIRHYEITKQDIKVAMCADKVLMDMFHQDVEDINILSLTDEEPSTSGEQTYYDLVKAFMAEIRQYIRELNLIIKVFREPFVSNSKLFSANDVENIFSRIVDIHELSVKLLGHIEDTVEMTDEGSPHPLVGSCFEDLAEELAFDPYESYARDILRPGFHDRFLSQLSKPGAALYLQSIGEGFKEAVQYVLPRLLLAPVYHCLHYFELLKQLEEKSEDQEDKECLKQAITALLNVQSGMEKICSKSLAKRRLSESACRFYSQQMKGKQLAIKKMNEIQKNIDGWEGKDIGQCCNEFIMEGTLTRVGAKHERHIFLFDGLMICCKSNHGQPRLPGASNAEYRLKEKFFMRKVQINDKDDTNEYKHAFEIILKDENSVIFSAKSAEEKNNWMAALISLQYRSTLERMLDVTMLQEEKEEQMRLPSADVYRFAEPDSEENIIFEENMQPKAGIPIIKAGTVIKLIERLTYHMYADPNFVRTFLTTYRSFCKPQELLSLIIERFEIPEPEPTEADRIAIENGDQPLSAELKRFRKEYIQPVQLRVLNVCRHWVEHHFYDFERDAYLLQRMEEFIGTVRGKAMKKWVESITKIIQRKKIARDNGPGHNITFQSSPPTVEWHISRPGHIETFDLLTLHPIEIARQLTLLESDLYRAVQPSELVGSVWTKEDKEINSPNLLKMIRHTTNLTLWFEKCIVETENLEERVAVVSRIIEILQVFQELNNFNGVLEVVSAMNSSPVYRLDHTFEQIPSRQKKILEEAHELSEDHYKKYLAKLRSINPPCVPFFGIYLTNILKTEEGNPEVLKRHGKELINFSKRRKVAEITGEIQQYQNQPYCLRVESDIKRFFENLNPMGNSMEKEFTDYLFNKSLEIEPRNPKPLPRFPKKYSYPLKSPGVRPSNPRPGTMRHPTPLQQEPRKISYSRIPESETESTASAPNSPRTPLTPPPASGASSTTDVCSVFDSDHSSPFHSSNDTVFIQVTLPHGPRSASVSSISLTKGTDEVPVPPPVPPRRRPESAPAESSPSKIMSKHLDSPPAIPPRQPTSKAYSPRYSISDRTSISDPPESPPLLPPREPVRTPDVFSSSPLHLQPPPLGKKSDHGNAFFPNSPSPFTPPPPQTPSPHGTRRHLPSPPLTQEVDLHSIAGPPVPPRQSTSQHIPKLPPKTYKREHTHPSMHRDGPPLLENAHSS

The next experiment relates to p-ERK of PC-9 cells. The experiment can be described thus: p-ERK HTRF assay in PC-9 cells. Format: cell-based. Particulars: Homo sapiens, PC-9, 1 h, PC-9 lung cancer cells, 1 hour treatment, read-out: IC50, inhibitory activity on p-ERK of PC-9 cells. In a few lines:
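PC-9 lung cancer cells plated overnight, then exposed 1 h at 37 °C to a 10-point compound series (10,000–[…] nM final, 0.1% DMSO). After 1 h lysis, phospho-ERK1/2 (Thr202/Tyr204) measured by HTRF at 665/615 nm. Percent inhibition calculated from max and min signals.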

On to `COc1nc(C2(O)CCN(C(=O)[C@H](C)O)CC2)cc2c(N[C@H](C)c3cccc(C(F)F)c3F)ccnc12` [Compound B-174], for which the IC50 at KRAS-G12C/SOS1 fell in the range of 100 to 500 nM; in the experiment on p-ERK of PC-9 cells, 300 to 1000 nM.

With `C[C@@H](Nc1ccnc2cnc(C3(O)CCC(N4CCNCC4)CC3)cc12)c1cccc(C(F)F)c1F` (single isomer, unassigned) [Compound B-97-P2], the IC50 at KRAS-G12C/SOS1 is at most 100 nM; in the experiment on p-ERK of PC-9 cells it was 300 to 1000 nM.

Take `C[C@@H](Nc1ccnc2cnc(C3(O)CCN(C(=O)C4COC4)CC3)cc12)c1cccc(C(F)F)c1F` [Compound B-132]: the IC50 at KRAS-G12C/SOS1 was at most 100 nM; in the experiment on p-ERK of PC-9 cells, at most 300 nM.

Turning to `C[C@@H](Nc1ccnc2cnc(C3(O)CCN(C(=O)CC#N)CC3)cc12)c1cccc(C(F)F)c1F` [Compound B-116], the values for the IC50 at KRAS-G12C/SOS1 and in the experiment with p-ERK of PC-9 cells were at most 100 nM and at most 300 nM, respectively.

In the case of `C[C@@H](Nc1ccnc2cnc(C3(O)CCN(C(=O)NCCO)CC3)cc12)c1cccc(C(F)F)c1F` [Compound B-163], the results for the IC50 at KRAS-G12C/SOS1 and in the experiment on p-ERK of PC-9 cells were at most 100 nM and at most 300 nM, respectively.

As to `C[C@@H](Nc1ccnc2cnc(C3(O)CCN(C(=O)N4CC[C@H](O)C4)CC3)cc12)c1cccc(C(F)F)c1F` [Compound B-161], the figures for the IC50 on KRAS-G12C/SOS1 and in the experiment with p-ERK of PC-9 cells were at most 100 nM and 300 to 1000 nM, respectively.

Consider `C[C@@H](Nc1ccnc2cnc(N3CC[C@H](N)C3)cc12)c1cccc(C(F)F)c1F` [Compound B-33], for which the IC50 on KRAS-G12C/SOS1 was at most 100 nM; in the experiment with p-ERK of PC-9 cells, 300 to 1000 nM.

For `CC(=O)N1CCC(c2cc3c(N[C@H](C)c4cccc(C(F)F)c4F)ccnc3cn2)CC1` [Compound B-4], the IC50 on KRAS-G12C/SOS1 was at most 100 nM; with p-ERK of PC-9 cells, at most 300 nM.

On to `CC(=O)N1CCC(N)(c2cc3c(N[C@H](C)c4cccc(C(F)F)c4F)ccnc3cn2)CC1` [Compound B-51], for which the IC50 is at most 100 nM at KRAS-G12C/SOS1 and at most 300 nM in the experiment with p-ERK of PC-9 cells.

Regarding `Cc1nc(C2(O)CCN(C(=O)CO)CC2)cc2c(N[C@H](C)c3cccc(C(F)F)c3F)ccnc12` [Compound B-175], the IC50 was at most 100 nM on KRAS-G12C/SOS1 and at most 300 nM in the experiment with p-ERK of PC-9 cells.
